Reference: patent US7910588B2, “5-HT7 receptor antagonists” (Eli Lilly and Company, priority 2007, dated 2011)

Experiments:
5-HT1A = target: T1, 5-HT1A (Homo sapiens, UniProt P08908); test: Radioligand binding assay, 5-HT1A
T1 construct: expressed in transfected cells
T1 sequence (P08908 1-422): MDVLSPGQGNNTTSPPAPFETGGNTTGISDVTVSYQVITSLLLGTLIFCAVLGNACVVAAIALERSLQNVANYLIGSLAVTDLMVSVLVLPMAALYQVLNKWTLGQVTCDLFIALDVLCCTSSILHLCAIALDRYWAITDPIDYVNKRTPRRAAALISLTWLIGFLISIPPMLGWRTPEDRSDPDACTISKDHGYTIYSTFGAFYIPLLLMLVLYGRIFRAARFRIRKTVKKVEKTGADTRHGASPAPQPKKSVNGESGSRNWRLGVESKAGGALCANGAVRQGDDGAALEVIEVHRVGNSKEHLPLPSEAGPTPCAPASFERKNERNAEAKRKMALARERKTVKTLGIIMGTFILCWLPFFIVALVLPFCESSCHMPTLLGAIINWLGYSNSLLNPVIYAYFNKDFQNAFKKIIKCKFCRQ
Experimental: (§1) [^3H] […] The reactions are incubated at room temperature for 3 hr. and then counted in a Trilux Microbeta™ scintillation counter to detect receptor-bound radioligand. Binding data are analyzed by computer-assisted 4 parameter fit analysis (ID Business Solutions Ltd, Guildford, Surrey, UK). […]
(§2) Affinity for other serotonin receptor subtypes as well as for alpha 1 & 2 adrenergic receptors can readily be determined by modification of the above described radioligand receptor binding assay using membranes derived from cells stably expressing the desired receptor subtype including the 5-HT1A, 5-HT1B, and 5-HT1D subtypes, as well as the 5-HT2A, 5-HT2B, 5-HT2C, 5-HT4, 5-HT7, and 5-HT6 receptor subtypes. […]

alpha 2 adrenergic = test: Radioligand binding assay, alpha 2 adrenergic
Experimental: as §1, §2

With `CCn1ncc(CN2CCN(c3cccnc3N3CCC(O)CC3)CC2)c1C.Cl` [Example 1, 3′-[4-(1-Ethyl-5-methyl-1H-pyrazol-4-ylmethyl)-piperazin-1-yl]-3,4,5,6-tetrahydro-2H-[1,2]bipyridinyl-4-ol hydrochloride] the Ki (5-HT1A) was 0.213 µM and the Ki (alpha 2 adrenergic) was > 2.67 µM.
